What follows are compounds tested against USP7 (Homo sapiens (Human), UniProt Q93009) (assay: USP7 Assay B (Ubitquin-Rhodamine110 Assay)). Conditions: Ub-Rh110 substrate 25 nM.
Format: biochemical

Sequence of USP7 (Q93009 208-1102): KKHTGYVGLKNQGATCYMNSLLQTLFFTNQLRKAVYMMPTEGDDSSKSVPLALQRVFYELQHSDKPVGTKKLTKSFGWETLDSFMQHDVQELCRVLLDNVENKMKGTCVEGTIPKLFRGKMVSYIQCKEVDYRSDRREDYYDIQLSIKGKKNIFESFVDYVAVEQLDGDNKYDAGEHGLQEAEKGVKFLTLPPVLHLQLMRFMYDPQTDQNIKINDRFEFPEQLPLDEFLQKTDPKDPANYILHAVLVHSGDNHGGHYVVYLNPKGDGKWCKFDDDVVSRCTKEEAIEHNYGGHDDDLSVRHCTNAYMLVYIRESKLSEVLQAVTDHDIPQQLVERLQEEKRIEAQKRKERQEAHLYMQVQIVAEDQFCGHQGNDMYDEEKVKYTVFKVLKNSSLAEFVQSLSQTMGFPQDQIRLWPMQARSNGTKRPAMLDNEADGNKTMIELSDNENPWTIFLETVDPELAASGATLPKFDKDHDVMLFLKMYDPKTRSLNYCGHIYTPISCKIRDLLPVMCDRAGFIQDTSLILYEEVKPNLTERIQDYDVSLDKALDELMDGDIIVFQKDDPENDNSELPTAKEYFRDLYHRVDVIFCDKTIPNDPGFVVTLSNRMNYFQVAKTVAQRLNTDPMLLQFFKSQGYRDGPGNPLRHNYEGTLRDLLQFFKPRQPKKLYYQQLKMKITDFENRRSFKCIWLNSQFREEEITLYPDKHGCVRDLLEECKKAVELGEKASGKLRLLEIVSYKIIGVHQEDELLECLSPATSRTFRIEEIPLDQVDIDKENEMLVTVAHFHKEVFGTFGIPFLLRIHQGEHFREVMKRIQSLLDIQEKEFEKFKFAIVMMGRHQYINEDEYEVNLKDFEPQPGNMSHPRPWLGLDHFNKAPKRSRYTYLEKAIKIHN

Q: With `O=C(c1ccc(-c2ccccc2)cc1)N1CCC(O)(Cn2cnn3cccc3c2=O)CC1` [Compound I-36, 3-((1-([1,1′-biphenyl]-4-carbonyl)-4-hydroxypiperidin-4-yl)methyl)pyrrolo[2,1-f][1,2,4]triazin-4(3H)-one] as the compound, how does the IC50 read?
A: The IC50 was over 10 µM.

Q: For `Cc1ccc(-c2cccc(C(=O)N3CCC(O)(Cn4cnn5cccc5c4=O)CC3)c2)s1` [Compound I-20, 3-((4-hydroxy-1-(3-(5-methylthiophen-2-yl)benzoyl)piperidin-4-yl)methyl)pyrrolo[2,1-f][1,2,4]triazin-4(3H)-one], which IC50 is on record?
A: The IC50 was over 10 µM.

Q: Which IC50 does the source give for “3-((1-(3-(1H-pyrazol-1-yl)butanoyl)-4-hydroxypiperidin-4-yl)methyl)pyrrolo[2,1-f][1,2,4]triazin-4(3H)-one [Compound I-34]” here?
A: The IC50 was over 10 µM.

Q: With `O=C(c1ccc(-c2ccc(C(=O)N3CCC(O)(Cn4cnn5cccc5c4=O)CC3)c(Cl)c2)cc1)N1CCCCC1` [Compound I-79, 3-((1-(3-chloro-4′-(piperidine-1-carbonyl)-[1,1′-biphenyl]-4-carbonyl)-4-hydroxypiperidin-4-yl)methyl)pyrrolo[2,1-f][1,2,4]triazin-4(3H)-one] as the compound, how does the IC50 read?
A: The IC50 was 1 to 10 µM.

Q: How did the IC50 turn out when `O=C(NCc1ccc(F)cc1)Nc1cc2c(=O)n(CC3(O)CCN(C(=O)C4CC4)CC3)cnn2c1` [Compound I-87, 1-(3-((1-(cyclopropanecarbonyl)-4-hydroxypiperidin-4-yl)methyl)-4-oxo-3,4-dihydropyrrolo[2,1-f][1,2,4]triazin-6-yl)-3-(4-fluorobenzyl)urea] was run?
A: Its IC50 is over 10 µM.

Q: `O=C(c1ccc(-c2cnc3ccccc3c2)cc1)N1CCC(O)(Cn2cnn3cccc3c2=O)CC1` [Compound I-42, 3-((4-hydroxy-1-(4-(quinolin-3-yl)benzoyl)piperidin-4-yl)methyl)pyrrolo[2,1-f][1,2,4]triazin-4(3H)-one] was tested. Which IC50 did it give?
A: The IC50 was 1 to 10 µM.

Q: Which IC50 does the source give for `O=C(c1cccc(-c2ccc(C(F)(F)F)cc2)c1)N1CCC(O)(Cn2cnn3cccc3c2=O)CC1` [Compound I-15, 3-((4-hydroxy-1-(4′-(trifluoromethyl)-[1,1′-biphenyl]-3-carbonyl)piperidin-4-yl)methyl)pyrrolo[2,1-f][1,2,4]triazin-4(3H)-one] here?
A: Its IC50 is over 10 µM.

Q: Which IC50 does the source give for `Cc1cc(C(F)(F)F)nn1Cc1ccc(C(=O)N2CCC(O)(Cn3cnn4cccc4c3=O)CC2)cc1` [Compound I-67, 3-((4-hydroxy-1-(4-((5-methyl-3-(trifluoromethyl)-1H-pyrazol-1-yl)methyl)benzoyl)piperidin-4-yl)methyl)pyrrolo[2,1-f][1,2,4]triazin-4(3H)-one] here?
A: The IC50 was 1 to 10 µM.

Q: With `Cc1ccc(NC(=O)Nc2cc3c(=O)n(CC4(O)CCN(C(=O)C5CC5)CC4)cnn3c2)cc1` [Compound I-89, 1-(3-((1-(cyclopropanecarbonyl)-4-hydroxypiperidin-4-yl)methyl)-4-oxo-3,4-dihydropyrrolo[2,1-f][1,2,4]triazin-6-yl)-3-(p-tolyl)urea] as the compound, how does the IC50 read?
A: The IC50 was over 10 µM.

Q: Which IC50 does the source give for “3-((4-hydroxy-1-(3-phenylbutanoyl)piperidin-4-yl)methyl)-6-methylpyrrolo[2,1-f][1,2,4]triazin-4(3H)-one [Compound I-83]” here?
A: Its IC50 is 1 to 10 µM.

Q: With `CC(CC(=O)N1CCC(O)(Cn2cnn3cccc3c2=O)CC1)c1ccccc1` (centres unmarked) [Compound I-1, 3-((4-hydroxy-1-(3-phenylbutanoyl)piperidin-4-yl)methyl)pyrrolo[2,1-f][1,2,4]triazin-4(3H)-one] as the compound, how does the IC50 read?
A: Its IC50 is 0.2 to 1 µM.

Q: `O=C(Nc1ccc2c(c1)CCC2)Nc1cc2c(=O)n(CC3(O)CCN(C(=O)C4CC4)CC3)cnn2c1` [Compound I-90, 1-(3-((1-(cyclopropanecarbonyl)-4-hydroxypiperidin-4-yl)methyl)-4-oxo-3,4-dihydropyrrolo[2,1-f][1,2,4]triazin-6-yl)-3-(2,3-dihydro-1H-inden-5-yl)urea] was tested. Which IC50 did it give?
A: The IC50 was over 10 µM.

Q: For `O=C(c1ccc(-c2ccc(C(=O)N3CCC(O)(Cn4cnn5cccc5c4=O)CC3)cc2)cc1)N1CCCC1` [Compound I-39, 3-((4-hydroxy-1-(4′-(pyrrolidine-1-carbonyl)-[1,1′-biphenyl]-4-carbonyl)piperidin-4-yl)methyl)pyrrolo[2,1-f][1,2,4]triazin-4(3H)-one], which IC50 is on record?
A: The IC50 was 1 to 10 µM.

Q: With `O=C(Nc1cc2c(=O)n(CC3(O)CCN(C(=O)C4CC4)CC3)cnn2c1)c1csc(-c2ccccc2)n1` [Compound I-112, N-(3-((1-(cyclopropanecarbonyl)-4-hydroxypiperidin-4-yl)methyl)-4-oxo-3,4-dihydropyrrolo[2,1-f][1,2,4]triazin-6-yl)-2-phenylthiazole-4-carboxamide] as the compound, how does the IC50 read?
A: Its IC50 is 1 to 10 µM.

Q: `COc1cccc(-c2ccc(C(=O)N3CCC(O)(Cn4cnn5cccc5c4=O)CC3)cc2)c1` [Compound I-35, 3-((4-hydroxy-1-(3′-methoxy-[1,1′-biphenyl]-4-carbonyl)piperidin-4-yl)methyl)pyrrolo[2,1-f][1,2,4]triazin-4(3H)-one] was tested. Which IC50 did it give?
A: Its IC50 is over 10 µM.

Q: With `O=C(NCc1ccccc1F)Nc1cc2c(=O)n(CC3(O)CCN(C(=O)C4CC4)CC3)cnn2c1` [Compound I-94, 1-(3-((1-(cyclopropanecarbonyl)-4-hydroxypiperidin-4-yl)methyl)-4-oxo-3,4-dihydropyrrolo[2,1-f][1,2,4]triazin-6-yl)-3-(2-fluorobenzyl)urea] as the compound, how does the IC50 read?
A: The IC50 was over 10 µM.

Q: `Cc1ccc(CNC(=O)Nc2cc3c(=O)n(CC4(O)CCN(C(=O)C5CC5)CC4)cnn3c2)cc1` [Compound I-92, 1-(3-((1-(cyclopropanecarbonyl)-4-hydroxypiperidin-4-yl)methyl)-4-oxo-3,4-dihydropyrrolo[2,1-f][1,2,4]triazin-6-yl)-3-(4-methylbenzyl)urea] was tested. Which IC50 did it give?
A: Its IC50 is over 10 µM.

Q: `Cc1ccc(NC(=O)Nc2cc3c(=O)n(CC4(O)CCN(C(=O)C5CC5)CC4)cnn3c2)c(C)c1` [Compound I-99, 1-(3-((1-(cyclopropanecarbonyl)-4-hydroxypiperidin-4-yl)methyl)-4-oxo-3,4-dihydropyrrolo[2,1-f][1,2,4]triazin-6-yl)-3-(2,4-dimethylphenyl)urea] was tested. Which IC50 did it give?
A: Its IC50 is over 10 µM.

Q: With `O=C(Nc1cc(F)cc(F)c1)Nc1cc2c(=O)n(CC3(O)CCN(C(=O)C4CC4)CC3)cnn2c1` [Compound I-93, 1-(3-((1-(cyclopropanecarbonyl)-4-hydroxypiperidin-4-yl)methyl)-4-oxo-3,4-dihydropyrrolo[2,1-f][1,2,4]triazin-6-yl)-3-(3,5-difluorophenyl)urea] as the compound, how does the IC50 read?
A: The IC50 was over 10 µM.

Q: Which IC50 does the source give for `COc1cc(OC)cc(-c2ccc(C(=O)N3CCC(O)(Cn4cnn5cccc5c4=O)CC3)cc2)c1` [Compound I-44, 3-((1-(3′,5′-dimethoxy-[1,1′-biphenyl]-4-carbonyl)-4-hydroxypiperidin-4-yl)methyl)pyrrolo[2,1-f][1,2,4]triazin-4(3H)-one] here?
A: The IC50 was over 10 µM.

Q: With `O=C(CC1CCc2ccccc2C1)N1CCC(O)(Cn2cnn3cccc3c2=O)CC1` (centres unmarked) [Compound I-58, 3-((4-hydroxy-1-(2-(1,2,3,4-tetrahydronaphthalen-2-yl)acetyl)piperidin-4-yl)methyl)pyrrolo[2,1-f][1,2,4]triazin-4(3H)-one] as the compound, how does the IC50 read?
A: The IC50 was over 10 µM.

Q: Which IC50 does the source give for `O=C(c1ccc(Sc2ccccc2)cc1)N1CCC(O)(Cn2cnn3cccc3c2=O)CC1` [Compound I-62, 3-((4-hydroxy-1-(4-(phenylthio)benzoyl)piperidin-4-yl)methyl)pyrrolo[2,1-f][1,2,4]triazin-4(3H)-one] here?
A: The IC50 was 1 to 10 µM.

Q: How did the IC50 turn out when `Cc1ccc(C)c(C(=O)Nc2cc3c(=O)n(CC4(O)CCN(C(=O)C5CC5)CC4)cnn3c2)c1` [Compound I-109, N-(3-((1-(cyclopropanecarbonyl)-4-hydroxypiperidin-4-yl)methyl)-4-oxo-3,4-dihydropyrrolo[2,1-f][1,2,4]triazin-6-yl)-2,5-dimethylbenzamide] was run?
A: The IC50 was over 10 µM.

Q: For `O=C(Nc1cc2c(=O)n(CC3(O)CCN(C(=O)C4CC4)CC3)cnn2c1)c1ccc(C(F)(F)F)cc1` [Compound I-102, N-(3-((1-(cyclopropanecarbonyl)-4-hydroxypiperidin-4-yl)methyl)-4-oxo-3,4-dihydropyrrolo[2,1-f][1,2,4]triazin-6-yl)-4-(trifluoromethyl)benzamide], which IC50 is on record?
A: The IC50 was over 10 µM.

Q: With `O=C(c1ccc(-c2ccc3ncccc3c2)cc1)N1CCC(O)(Cn2cnn3cccc3c2=O)CC1` [Compound I-43, 3-((4-hydroxy-1-(4-(quinolin-6-yl)benzoyl)piperidin-4-yl)methyl)pyrrolo[2,1-f][1,2,4]triazin-4(3H)-one] as the compound, how does the IC50 read?
A: Its IC50 is 1 to 10 µM.

Q: For `O=C(c1ccc(-c2cscn2)cc1)N1CCC(O)(Cn2cnn3cccc3c2=O)CC1` [Compound I-59, 3-((4-hydroxy-1-(4-(thiazol-4-yl)benzoyl)piperidin-4-yl)methyl)pyrrolo[2,1-f][1,2,4]triazin-4(3H)-one], which IC50 is on record?
A: The IC50 was over 10 µM.

Q: With `C[C@H](CC(=O)N1CCC(O)(Cn2cnn3cccc3c2=O)CC1)c1ccccc1` [Compound I-56, (R)-3-((4-hydroxy-1-(3-phenylbutanoyl)piperidin-4-yl)methyl)pyrrolo[2,1-f][1,2,4]triazin-4(3H)-one] as the compound, how does the IC50 read?
A: Its IC50 is under 0.2 µM.

Q: With `O=C(c1ccc(Cn2cnc3ccccc32)cc1)N1CCC(O)(Cn2cnn3cccc3c2=O)CC1` [Compound I-64, 3-((1-(4-((1H-benzo[d]imidazol-1-yl)methyl)benzoyl)-4-hydroxypiperidin-4-yl)methyl)pyrrolo[2,1-f][1,2,4]triazin-4(3H)-one] as the compound, how does the IC50 read?
A: Its IC50 is 1 to 10 µM.

Q: With `COc1cccc(-c2cccc(C(=O)N3CCC(O)(Cn4cnn5cccc5c4=O)CC3)c2)c1` [Compound I-10, 3-((4-hydroxy-1-(3′-methoxy-[1,1′-biphenyl]-3-carbonyl)piperidin-4-yl)methyl)pyrrolo[2,1-f][1,2,4]triazin-4(3H)-one] as the compound, how does the IC50 read?
A: The IC50 was over 10 µM.

— patent US11795171B2, “Pyrrolotriazinones and imidazotriazinones as ubiquitin-specific protease 7 inhibitors” (Valo Health, Inc., priority 2014, dated 2023)
